Consider 23 molecules from ChEMBL document CHEMBL1201862, “PubChem BioAssay data set” (2004).

Test systems include HOP-18; DMS-114; DLD-1; M19-MEL; SNB-78; XF498; LXFL 529; DMS-273; RXF 631.
Common to all, as to assay: inhibition of tumour cell growth, NCI panel, 48 h

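Values below derive from 48-hour exposures of cells grown in 96-well plates, with endpoints linearly interpolated between the two concentrations bracketing the appropriate inhibition level. GI50 = concentration required for 50% inhibition of growth.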 Active and inactive are the calls of the source. Rule as the data show it: active = GI50 up to about 1.1 µM and inactive = higher.

Regarding `O=C(O)C(Cl)(Cl)Cl`, the GI50 in the test with HOP-18 was 80 µM (inactive); in the test on DMS-114, > 100 µM (inactive); in the test on DLD-1, > 100 µM (inactive); in the test with M19-MEL it was > 100 µM (inactive); with SNB-78 it was > 100 µM (inactive); in the test on XF498 it was > 100 µM (inactive). The GI50 in the test on LXFL 529 and in the test with DMS-273 was > 100 µM (inactive) throughout.

In the case of `CC12CCC(C(=O)N3CC=CCC3)(OC1=O)C2(C)C` (centres undefined), the GI50 in the test on HOP-18, in the test on DMS-114, in the test with DLD-1, in the test with M19-MEL, in the test on SNB-78 and with XF498 was > 100 µM (inactive) throughout. In the test on DMS-273, the GI50 is > 100 µM (inactive).

On to `CCCC(=O)OCC1OC(n2ccc(N)nc2=O)C(OC(=O)CCC)C1OC(=O)CCC` (centres undefined), for which the GI50 is 1 µM (active) in the test on HOP-18; > 100 µM (inactive) in the test with DMS-114; > 100 µM (inactive) with DLD-1; 43.2 µM (inactive) with M19-MEL; > 100 µM (inactive) in the test with SNB-78; 36.7 µM (inactive) in the test on DMS-273.

`COC(=O)c1ccc(/N=N/N(C)COc2ccc(Br)cc2)cc1`: the GI50 in the test on HOP-18 was > 100 µM (inactive); in the test with DMS-114, 55.7 µM (inactive); in the test on DLD-1 it was > 54.6 µM (inactive); with M19-MEL, > 100 µM (inactive); in the test with SNB-78, > 100 µM (inactive); with XF498 it was > 100 µM (inactive). Also, the GI50 in the test on DMS-273 is > 89.9 µM (inactive).

For the molecule `COC(=O)C1=C(OC)c2cc3c(cc2C(c2cc(OC)c(OC)c(OC)c2)C1C(=O)OC)OCO3` (centres undefined), the GI50 with HOP-18, with DMS-114, in the test with DLD-1, with M19-MEL, in the test with SNB-78 and in the test with XF498 was > 100 µM (inactive) each time. The GI50 in the test with LXFL 529 and with DMS-273 was > 100 µM (inactive) throughout.

For `COc1cc(Cc2cc(OC)c(OC)c(OC)c2)ccc1O`, the GI50 was 4.63 µM (inactive) with DMS-114; 6.11 µM (inactive) in the test with DLD-1; 6.38 µM (inactive) with M19-MEL; 40.6 µM (inactive) in the test with SNB-78; 19.9 µM (inactive) in the test on XF498; 43.6 µM (inactive) with LXFL 529.

Take `S=C(N/N=C/c1ccccc1)NC12CC3CC(CC(C3)C1)C2`: the GI50 in the test on XF498 is 35.8 µM (inactive); in the test with RXF 631 it was 44.5 µM (inactive); in the test with LXFL 529, 64.7 µM (inactive); with DMS-273, 22.6 µM (inactive).

`O=c1cccccc1NCCCCCCNc1cccccc1=O`: the GI50 with HOP-18, in the test with DMS-114, in the test with DLD-1, in the test with M19-MEL, in the test on SNB-78 and in the test on RXF 631 was > 100 µM (inactive) each time. Moreover, the GI50 in the test on LXFL 529 and in the test on DMS-273 was > 100 µM (inactive) throughout.

On to `CC1S(=O)(=O)OCCOS1(=O)=O`, for which the GI50 in the test on HOP-18 was > 100 µM (inactive); with DMS-114 it was 39.2 µM (inactive); in the test with DLD-1, > 100 µM (inactive); in the test with M19-MEL it was > 100 µM (inactive); in the test with SNB-78 it was > 100 µM (inactive); in the test with RXF 631, 31.7 µM (inactive). Also, the GI50 was > 100 µM (inactive) with LXFL 529 and 60 µM (inactive) in the test with DMS-273.

Consider `C/N=c1\ss/c(=N\C(=S)N(C)C)n1-c1ccccc1`, for which the GI50 with HOP-18 was > 100 µM (inactive); in the test with DMS-114 it was > 67.8 µM (inactive); in the test with DLD-1, > 100 µM (inactive); with M19-MEL, > 100 µM (inactive); in the test on SNB-78, 46 µM (inactive); in the test on LXFL 529, > 100 µM (inactive). For the same molecule, the GI50 in the test with DMS-273 was > 100 µM (inactive).

Regarding `CCOC(=O)C1=C(NC)OCC1=O`, the GI50 in the test with DMS-114, in the test on M19-MEL, with SNB-78, in the test on XF498, with RXF 631 and in the test on LXFL 529 was > 100 µM (inactive) each time. Also, the GI50 in the test on DMS-273 was > 100 µM (inactive).

As to `O=C(Cc1ccccc1)NN1C(=O)C(Cl)C1c1ccc(Cl)cc1` (centres undefined), the GI50 in the test with HOP-18, with DMS-114, in the test on DLD-1, with SNB-78, with XF498 and in the test on LXFL 529 was > 100 µM (inactive) in each case. In the test with DMS-273, the GI50 is > 100 µM (inactive).

Regarding `CC(=O)OCCOCNC(=S)N/N=C(\C)c1cnc2ccccc2n1`, the GI50 is > 100 µM (inactive) with HOP-18; 15.6 µM (inactive) in the test on DMS-114; 26.2 µM (inactive) in the test with DLD-1; 15.8 µM (inactive) with M19-MEL; > 100 µM (inactive) with SNB-78; > 100 µM (inactive) with XF498. Also, the GI50 in the test on LXFL 529 was 30.8 µM (inactive); in the test with DMS-273 it was 31.9 µM (inactive).

On to `O=c1cc[nH]c2c1ccc1ncccc12`, for which the GI50 with HOP-18, in the test with DMS-114, in the test with DLD-1, in the test on M19-MEL, in the test on SNB-78 and with RXF 631 was > 100 µM (inactive) each time. Moreover, the GI50 in the test with LXFL 529 and in the test on DMS-273 was > 100 µM (inactive) in each case.

In the case of `O=C1c2ccccc2CCCCCCCCCCC12OCCCO2`, the GI50 with HOP-18 was 47.9 µM (inactive); in the test on DMS-114, 12.2 µM (inactive); in the test on DLD-1, 60.4 µM (inactive); with M19-MEL, 36.6 µM (inactive); with SNB-78, 22.6 µM (inactive); in the test with LXFL 529, 58.9 µM (inactive). Besides, in the test on DMS-273, the GI50 is 70.5 µM (inactive).

In the case of `CC(=O)C(CN(C)C)C(c1ccccc1)c1c(O)c2ccccc2oc1=O` (centres undefined), the GI50 in the test on HOP-18 was > 100 µM (inactive); with DMS-114, 93.3 µM (inactive); with DLD-1, > 100 µM (inactive); with M19-MEL, > 100 µM (inactive); with SNB-78, > 100 µM (inactive); in the test with XF498, > 100 µM (inactive). The GI50 with LXFL 529 and in the test with DMS-273 was > 100 µM (inactive) in each case.

As to `O=c1cc2ccccc2nn1Cc1ccccc1Cl`, the GI50 in the test on HOP-18 was > 100 µM (inactive); in the test on DMS-114 it was 67.6 µM (inactive); in the test with DLD-1 it was > 100 µM (inactive); in the test on M19-MEL, > 100 µM (inactive); with SNB-78 it was > 100 µM (inactive); in the test on XF498, 80.2 µM (inactive). The GI50 with DMS-273 was > 100 µM (inactive).

Take `CC(C)OC(=O)c1cc(NC(=O)C(C)(C)C)c(F)cc1Cl`: the GI50 with HOP-18, in the test on DMS-114, with M19-MEL, with XF498, in the test on RXF 631 and with LXFL 529 was > 100 µM (inactive) each time. In the test on DMS-273, the GI50 is > 100 µM (inactive).

As for `CCOC(=O)/C=C/n1c2ccccc2c(=O)c2cc(OC)ccc21`, the GI50 in the test with HOP-18 was > 100 µM (inactive); in the test with DMS-114 it was 65.2 µM (inactive); with DLD-1, 69.7 µM (inactive); with M19-MEL it was > 100 µM (inactive); with XF498, 48.5 µM (inactive); in the test on RXF 631, 87.5 µM (inactive). Also, the GI50 is > 100 µM (inactive) in the test with LXFL 529 and 49 µM (inactive) in the test with DMS-273.

Regarding `O=C(CC(=O)c1ccccc1)CC(O)(c1ccccc1)c1ccccc1`, the GI50 in the test on DMS-114 is 2.06 µM (inactive); in the test with DLD-1 it was 4.18 µM (inactive); with M19-MEL, 3.12 µM (inactive); in the test on SNB-78, 21 µM (inactive); with LXFL 529, 3.24 µM (inactive).

As to `CN(C)CC1(Cc2ccccc2)CC/C(=C\c2ccccc2)C1=O` (centres undefined), the GI50 in the test with HOP-18 was > 100 µM (inactive); in the test with DMS-114, 31.3 µM (inactive); in the test on DLD-1 it was 27.6 µM (inactive); with M19-MEL, 26.8 µM (inactive); with SNB-78 it was 52.2 µM (inactive); in the test on XF498 it was 80.9 µM (inactive). Besides, the GI50 is 29.3 µM (inactive) in the test with RXF 631, 37.2 µM (inactive) in the test with LXFL 529 and 36.5 µM (inactive) in the test with DMS-273.

On to `CC(C)Cc1cccc(C(C)C)c1NC(=O)CCC(=O)N/N=C1\C(=N/NC(=O)CCC(=O)Nc2c(C(C)C)cccc2C(C)C)C(c2ccc3c(c2)OCO3)Oc2ccccc21` (centres undefined), for which the GI50 was 42.6 µM (inactive) in the test on DMS-114; 40.8 µM (inactive) in the test with DLD-1; > 100 µM (inactive) in the test with M19-MEL; 94 µM (inactive) with SNB-78; > 100 µM (inactive) with XF498; 43.6 µM (inactive) in the test with LXFL 529. In addition, the GI50 in the test with DMS-273 was 76.9 µM (inactive).

For the molecule `CC(C)Cc1ccc(C(C)C(=O)N2CCN(/C=C/c3ccccc3)CC2)cc1` (centres undefined), the GI50 in the test with HOP-18 is 21.5 µM (inactive); in the test with DMS-114, 10.8 µM (inactive); with DLD-1 it was 13.7 µM (inactive); in the test with M19-MEL it was 15.7 µM (inactive); in the test with SNB-78 it was 25.1 µM (inactive); in the test with XF498 it was 13.8 µM (inactive). The GI50 in the test with DMS-273 was 11.4 µM (inactive).
